Laboratory results: patent US9314507B2, “Methods of treatment of heart failure with natriuretic peptides” (Capricor Therapeutics, INC., priority 2010, dated 2016)
Where a SMILES comes first, the peptide text is derived from it. Bridges are numbered along the chain shown (N, C = ends).

Experiments:
Type in all cases: in vivo, human
[1] = tested on: patients hospitalized with acute heart failure requiring hemodynamic monitoring; assay: Hemodynamic Monitoring Phase 2a clinical study (Hemo Study, NIL-CDNP-CT003)
Procedure: Another exemplary study using CD-NP was a multi-center, open-label Phase 2a clinical study of CD-NP in patients hospitalized with acute heart failure requiring hemodynamic monitoring (Hemo Study, or NIL-CDNP-CT003). This study considered the efficacy of 8 hours of intravenous administration of CD-NP on changes in cardiac output and pulmonary capillary wedge pressure (PCWP, or wedge pressure).
Stabilized acute heart failure patients requiring hemodynamic monitoring, and receiving standard-of-care heart failure medications (i.e., furosemide infusion), received an initial 8-hour CD-NP infusion followed by a 14-hour washout period, and then a further 8-hour CD-NP infusion. Hemodynamic measurements were collected for an additional 8 hours and safety measurements were collected for a further 2 days.
Patients were enrolled into one of two sequential cohorts (Cohort A and B) which could include up to 10 evaluable patients in each cohort. Cohort A received 8 hours of 3 ng/kg/min CD-NP, followed by a 14 hour wash-out period, and then 8 hours of 10 ng/kg/min CD-NP. Cohort B received 8 hours of 1 ng/kg/min CD-NP, followed by a 14 hour wash-out period, and then 8 hours of 20 ng/kg/min CD-NP.
The first 2 hours, (−2 to 0) represent time before administration of CD-NP. Hours 0 to 38 represent time during the CD-NP dosing regimen discussed above.

[2] = clinical; details: human, in vivo; read-out: terminal elimination half-life
[3] = tested on: healthy subjects; assay: clinical
[4] = tested on: patients with chronic heart failure; assay: Dosing study (fixed and weight-based dose)
Procedure: In a dosing study, CD-NP was administered to patients with chronic heart failure. The amount of CD-NP administered was either a set amount (in μg/hr) regardless of the patient's weight, or was varied based on the patient's weight.
In FIG. 10a, the steady state average (SS Avg) serum concentration of CD-NP in pg/mL is plotted against patient weight for patients who received low (18 μg/hr) and medium (24 μg/hr) doses of CD-NP.
The placebo group had no significant change in SBP over the course of the study. […] In one aspect, the SBP decrease for doses 24 μg/hr is insufficient to cause a risk of hypotension. […] The weight-based group received a dose that depended on the patients weight. Using PK data, for example the linear fit of data from FIG. 10a, the dose was adjusted to give a predicted serum concentration of 500 pg/mL.
As depicted in FIG. 12, the concentration of CD-NP in serum vs. time after initial dosing for patients on a low dose and a medium dose.

CC[C@H](C)[C@@H]1NC(=O)[C@H](CCCNC(=N)N)NC(=O)[C@H](CC(=O)O)NC(=O)[C@H](CCCCN)NC(=O)[C@H](CC(C)C)NC(=O)CNC(=O)[C@H](Cc2ccccc2)NC(=O)[C@@H](NC(=O)CNC(=O)[C@H](CCCCN)NC(=O)[C@H](CO)NC(=O)[C@H](CC(C)C)NC(=O)CN)CSSC[C@@H](C(=O)N2CCC[C@H]2C(=O)N[C@@H](CO)C(=O)N[C@@H](CC(C)C)C(=O)N[C@@H](CCCNC(=N)N)C(=O)N[C@@H](CC(=O)O)C(=O)N2CCC[C@H]2C(=O)N[C@@H](CCCNC(=N)N)C(=O)N2CCC[C@H]2C(=O)N[C@@H](CC(N)=O)C(=O)N[C@@H](C)C(=O)N2CCC[C@H]2C(=O)N[C@@H](CO)C(=O)N[C@H](C(=O)N[C@@H](CO)C(=O)N[C@@H](C)C(=O)O)[C@@H](C)O)NC(=O)CNC(=O)[C@H](CC(C)C)NC(=O)CNC(=O)[C@H](CO)NC(=O)[C@H](CCSC)NC(=O)[C@H](CO)NC(=O)CNC1=O [CD-NP, cenderitide] (H-GLSKGCFGLKDRIGSMSGLGCPSLRDPRPNAPSTSA-OH; disulfide 6-21; N-terminus and C-terminus assumed)
SBP below 90 mmHg ([1]; 20 ng/kg/min, 8 h infusion, FIG. 4b): one patient had a transient dip in SBP below 90 mmHg
well tolerated dose ([1]; previous studies, co-administered with furosemide to stabilized heart failure patients): up to 20 ng/kg/min
half-life [2]: 15 to 20 min
orthostatic hypotension immediately after the infusion ([3]; 17.5 ng/kg/min, vs placebo arm): more events were observed in the CD-NP arm
subjects with symptomatic hypotension in association with orthostatic challenge immediately post-infusion ([3]; 25 ng/kg/min): two out of four
symptomatic hypotension during CD-NP dosing ([3]; during dosing): did not induce symptomatic hypotension
maximum tolerated dose (MTD) ([3]; healthy subjects, 10, 17.5 and 25 ng/kg/min tested): 17.5 ng/kg/min
time to steady state of natriuretic peptide ([3]; infusion): 1 to 2 h
area under the curve (AUC) vs patient weight ([4]; FIG. 10b): decreases with increasing patient weight
change in SBP ([4]; high dose 36 μg/hr (600 ng/min)): decrease in SBP that could possibly cause hypotension
steady state average (SS Avg) serum concentration vs patient weight ([4]; low (18 μg/hr) and medium (24 μg/hr) doses, FIG. 10a): decreases with increasing patient weight
